Earlier results, collected in patent US9456985B2, “Sustained-released product comprising a combination of a non-opioid amine and a non-steroidal, anti-inflammatory drug” (Upsher-Smith Laboratories, Inc., priority 2009, dated 2016).
Where a name gives a salt, the structure may show the parent alone.

Conditions: no test described

SMILES	solubility (descriptive)
NC12CC3CC(CC(C3)C1)C2 [Amantadine hydrochloride]	freely soluble
CC12CC3CC(C)(C1)CC(N)(C3)C2 [memantine hydrochloride, Memantine hydrochloride]	soluble in water
